For assay [1], the target named is T1, recombinant TsTIM (WT TsTIM) (Taenia solium, UniProt Q9GTX8).
T1 construct: N-terminal six-His tag from pRSET, expressed in E. coli BL21 Codon Plus (DE3)-RIL, IMAC-purified, tag removal not mentioned; TIM is a dimer
Description: enzyme inactivation assay, GAP to DHAP, alpha-GDH coupled NADH oxidation at […] nm. The assay is classed as biochemical.

Assay [2] deals with T1, recombinant TsTIM (WT TsTIM). Description: alpha-GDH coupled NADH oxidation at […] nm. The assay is classed as biochemical. The following applies: GAP to DHAP direction.

Some results are limits rather than exact numbers.

T1 sequence (Q9GTX8 whole entry): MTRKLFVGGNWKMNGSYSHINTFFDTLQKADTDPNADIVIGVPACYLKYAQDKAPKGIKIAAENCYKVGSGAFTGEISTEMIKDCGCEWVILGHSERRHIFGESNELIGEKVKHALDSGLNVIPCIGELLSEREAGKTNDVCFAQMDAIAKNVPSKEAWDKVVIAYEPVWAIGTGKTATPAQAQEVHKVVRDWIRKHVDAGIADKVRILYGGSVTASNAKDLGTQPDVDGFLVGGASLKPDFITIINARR

With `CCOC(=O)c1ccc2c(c1)[n+]([O-])c(C(=O)c1cccs1)c(C(F)(F)F)[n+]2[O-]` [TS-12], in assay [1], the inhibition at 1000 µM was below 40%.
With `O=C[C@H](O)COP(=O)(O)O` [glyceraldehyde 3-phosphate], the “alpha-GDH coupled NADH oxidation at 340 nm” value in assay [2] is “measuring the conversion of glyceraldehyde 3-phosphate (GAP) to dihydroxyacetone phosphate (DHAP)”.

For orientation: inhibition means how much of the control response was suppressed.

The values are drawn from PMC11944476, “In Vitro Evaluation of Esters of Quinoxaline-1,4-di-N-oxide Derivatives as New Antitaeniasis Agents and Their Inhibitory Activity Against Triosephosphate Isomerase” (Pharmaceuticals, 2025).
